In patent publication US8048892B2, “Azaquinolone based compounds exhibiting prolyl hydroxylase inhibitory activity, compositions, and uses thereof” (Amgen Inc., priority 2006, dated 2011):

Biological target: HIF PHD2 (Homo sapiens, UniProt Q9GZT9)
Assay: PHD2 inhibition assay (TR-FRET, VCB-Eu detection of hydroxylated P564-HIF1α peptide)
Assay type: biochemical
Settings: 2 nM PHD2, 100 nM P564-HIF1α peptide, 0.25 μM 2-oxoglutarate
Experimental: Inhibition of HIF PHD2 activity was quantified utilizing the TR-FRET technology. HIF PHD2 catalyzes a hydroxyl modification on the proline residue of the P564-HIF1α peptide substrate (Biotin-DLEMLAPYIPMDDDFQL (SEQ ID NO: 7)) resulting in recognition and binding of the europylated Von Hippel-Lindau protein (pVHL), elongin B and elongin C heterotrimeric (VCB-Eu) complex.
The PHD2 inhibition assay was executed by addition of freshly dissolved FeCl2 to 178.57 μM (100 μM final concentration) in PHD2 Reaction Buffer containing 30 mM MES, pH 6, 10 mM NaCl, 0.25% Brij-35, 0.01% BSA, and 1% DMSO. 28 μL of the iron solution and 2 μL of inhibitor compounds serially diluted in 100% DMSO (5% DMSO final) were added to black polypropylene 96-well microtiter plates. To that, 10 μL of 10 nM PHD2 (2 nM final) was added to all wells of the plate except for the 8 wells of column 12 (LO control), and allowed to incubate at room temperature on the shaker for one hour. Column 6 was the HI control containing PHD2 enzyme and 5% DMSO vehicle, but no inhibitor compound. To initiate the PHD2 enzymatic reaction, 10 μL of a solution containing 500 nM P564-HIF1α peptide (100 nM final), 10 mM ascorbic acid (2 mM final), and 1.25 μM 2-oxoglutarate (α-ketoglutarate; 0.25 μM final) in PHD2 Reaction Buffer was added to all wells of the plate and allowed to incubate on the shaker at room temperature for one hour.
The reaction was terminated by addition of 25 μL TR-FRET Buffer (50 mM TRIS-HCl, pH 9, 100 mM NaCl, 0.05% BSA, and 0.5% Tween-20) containing 150 mM succinate (product inhibitor; 50 mM final), 75 nM streptavidin-APC (25 nM final), and 7.5 nM VCB-Eu (2.5 nM final). The TR-FRET detection reagents were placed on a shaker for 1 hour to reach binding equilibrium before reading on the Discovery platform (PerkinElmer). Europium is excited at 315 nm and phosphoresces at 615 nm with a large Stoke's shift. APC, in turn, emits at 655 nm upon excitation at 615 nm. The TR-FRET signal is measured as the ratio of the APC 655 nm signal divided by the internal europium reference 615 nm emission signal.
The POC (percentage of control) was determined by comparing the signal from hydroxylated peptide substrate in the enzyme reaction containing inhibitor compound with that from PHD2 enzyme with DMSO vehicle alone (HI control), and no enzyme (LO control). POC was calculated using the formula: % control (POC)=(cpd−average LO)/(average HI−average LO)*100. Data (consisting of POC and inhibitor concentration in μM) was fitted to a 4-parameter equation (y=A+((B−A)/(1+((x/C)^D))), where A is the minimum y (POC) value, B is the maximum y (POC), C is the x (cpd concentration) at the point of inflection and D is the slope factor) using a Levenburg-Marquardt non-linear regression algorithm.

HIF PHD2, sequence (Q9GZT9 whole entry): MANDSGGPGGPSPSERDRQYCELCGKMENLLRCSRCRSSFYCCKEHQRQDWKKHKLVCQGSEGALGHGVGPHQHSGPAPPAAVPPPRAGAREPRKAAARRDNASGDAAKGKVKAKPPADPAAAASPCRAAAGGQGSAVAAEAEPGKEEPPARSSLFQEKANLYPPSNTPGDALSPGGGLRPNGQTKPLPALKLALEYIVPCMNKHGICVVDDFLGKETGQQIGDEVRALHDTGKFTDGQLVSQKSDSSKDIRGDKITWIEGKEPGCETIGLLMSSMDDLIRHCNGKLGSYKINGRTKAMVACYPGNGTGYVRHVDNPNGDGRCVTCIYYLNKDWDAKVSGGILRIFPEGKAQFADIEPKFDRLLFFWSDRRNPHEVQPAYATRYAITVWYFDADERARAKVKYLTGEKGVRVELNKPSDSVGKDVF

Row | SMILES | IC50
1 | Cn1c(=O)c(C(=O)NCC(=O)O)c(O)c2cc(-c3cccnc3)cnc21 [Example 44, 2-(4-Hydroxy-1-methyl-2-oxo-6-(pyridin-3-yl)-1,2-dihydro-1,8-naphthyridine-3-carboxamido)acetic acid] | < 50 nM
2 | Cc1ncccc1-c1cnc2c(c1)c(O)c(C(=O)NCC(=O)O)c(=O)n2C [Example 45, 2-(4-Hydroxy-1-methyl-6-(2-methylpyridin-3-yl)-2-oxo-1,8-naphthyridine-3-carboxamido)acetic acid] | < 50 nM
3 | Cn1c(=O)c(C(=O)NCC(=O)O)c(O)c2cc(-c3ccccc3)cnc21 [Example 46, 2-(4-Hydroxy-1-methyl-2-oxo-6-phenyl-1,2-dihydro-1,8-naphthyridine-3-carboxamido)acetic acid] | 100 to 500 nM
4 | Cc1nc(F)ccc1-c1cnc2c(c1)c(O)c(C(=O)NCC(=O)O)c(=O)n2C [Example 47, 2-(6-(6-Fluoro-2-methylpyridin-3-yl)-4-hydroxy-1-methyl-2-oxo-1,2-dihydro-1,8-naphthyridine-3-carboxamido)acetic acid] | < 50 nM
5 | Cc1ccc(-c2cnc3c(c2)c(O)c(C(=O)NCC(=O)O)c(=O)n3C)c(F)n1 [Example 48, N-((6-(2-Fluoro-6-methyl-3-pyridinyl)-4-hydroxy-1-methyl-2-oxo-1,2-dihydro-1,8-naphthyridin-3-yl)carbonyl)glycine] | < 50 nM
6 | CN(C)c1ccc(-c2cnc3c(c2)c(O)c(C(=O)NCC(=O)O)c(=O)n3C)cc1 [Example 49, N-((6-(4-(Dimethylamino)phenyl)-4-hydroxy-1-methyl-2-oxo-1,2-dihydro-1,8-naphthyridin-3-yl)carbonyl)glycine] | 100 to 500 nM
7 | CN(C)c1cccc(-c2cnc3c(c2)c(O)c(C(=O)NCC(=O)O)c(=O)n3C)c1 [Example 50, N-((6-(3-(Dimethylamino)phenyl)-4-hydroxy-1-methyl-2-oxo-1,2-dihydro-1,8-naphthyridin-3-yl)carbonyl)glycine] | < 50 nM
8 | Cn1c(=O)c(C(=O)NCC(=O)O)c(O)c2cc(-c3ccc(F)nc3)cnc21 [Example 51, N-((6-(6-Fluoro-3-pyridinyl)-4-hydroxy-1-methyl-2-oxo-1,2-dihydro-1,8-naphthyridin-3-yl)carbonyl)glycine] | < 50 nM
9 | COc1ccc(-c2cnc3c(c2)c(O)c(C(=O)NCC(=O)O)c(=O)n3C)cn1 [Example 52, N-((4-Hydroxy-1-methyl-6-(6-(methyloxy)-3-pyridinyl)-2-oxo-1,2-dihydro-1,8-naphthyridin-3-yl)carbonyl)glycine] | 100 to 500 nM
10 | COc1ncccc1-c1cnc2c(c1)c(O)c(C(=O)NCC(=O)O)c(=O)n2C [Example 53, N-((4-Hydroxy-1-methyl-6-(2-(methyloxy)-3-pyridinyl)-2-oxo-1,2-dihydro-1,8-naphthyridin-3-yl)carbonyl)glycine] | < 50 nM
11 | Cn1c(=O)c(C(=O)NCC(=O)O)c(O)c2cc(-c3cccc(N4CCOCC4)c3)cnc21 [Example 54] | 50 to 100 nM
12 | COc1cncc(-c2cnc3c(c2)c(O)c(C(=O)NCC(=O)O)c(=O)n3C)c1 [Example 55, N-((4-Hydroxy-1-methyl-6-(5-(methyloxy)-3-pyridinyl)-2-oxo-1,2-dihydro-1,8-naphthyridin-3-yl)carbonyl)glycine] | 50 to 100 nM
13 | CN1CCOc2cc(-c3cnc4c(c3)c(O)c(C(=O)NCC(=O)O)c(=O)n4C)ccc21 [Example 56, N-((4-Hydroxy-1-methyl-6-(4-methyl-3,4-dihydro-2H-1,4-benzoxazin-7-yl)-2-oxo-1,2-dihydro-1,8-naphthyridin-3-yl)carbonyl)glycine] | 50 to 100 nM
14 | Cn1c(=O)c(C(=O)NCC(=O)O)c(O)c2cc(-c3ccccc3N3CCOCC3)cnc21 [Example 57, N-((4-Hydroxy-1-methyl-6-(2-(4-morpholinyl)phenyl)-2-oxo-1,2-dihydro-1,8-naphthyridin-3-yl)carbonyl)glycine] | < 50 nM
15 | Cn1c(=O)c(C(=O)NCC(=O)O)c(O)c2cc(-c3ccccc3N3CCCCC3)cnc21 [Example 58, N-((4-Hydroxy-1-methyl-2-oxo-6-(2-(1-piperidinyl)phenyl)-1,2-dihydro-1,8-naphthyridin-3-yl)carbonyl)glycine] | 50 to 100 nM
16 | Cn1c(=O)c(C(=O)NCC(=O)O)c(O)c2cc(-c3cccc(N4CCCCC4)c3)cnc21 [Example 59, N-((4-Hydroxy-1-methyl-2-oxo-6-(3-(1-piperidinyl)phenyl)-1,2-dihydro-1,8-naphthyridin-3-yl)carbonyl)glycine] | 50 to 100 nM
17 | Cn1c(=O)c(C(=O)NCC(=O)O)c(O)c2cc(-c3cccc(N4CCCC4)c3)cnc21 [Example 60, N-((4-Hydroxy-1-methyl-2-oxo-6-(3-(1-pyrrolidinyl)phenyl)-1,2-dihydro-1,8-naphthyridin-3-yl)carbonyl)glycine] | 100 to 500 nM
18 | Cn1c(=O)c(C(=O)NCC(=O)O)c(O)c2cc(-c3cncnc3)cnc21 [Example 61, N-((4-Hydroxy-1-methyl-2-oxo-6-(5-pyrimidinyl)-1,2-dihydro-1,8-naphthyridin-3-yl)carbonyl)glycine] | < 50 nM
19 | CN(C)c1ccc(-c2cnc3c(c2)c(O)c(C(=O)NCC(=O)O)c(=O)n3C)cn1 [Example 62, N-((6-(6-(Dimethylamino)-3-pyridinyl)-4-hydroxy-1-methyl-2-oxo-1,2-dihydro-1,8-naphthyridin-3-yl)carbonyl)glycine] | < 50 nM
20 | Cn1c(=O)c(C(=O)NCC(=O)O)c(O)c2cc(-c3ccc(N4CCOCC4)cc3)cnc21 [Example 63, N-((4-Hydroxy-1-methyl-6-(4-(4-morpholinyl)phenyl)-2-oxo-1,2-dihydro-1,8-naphthyridin-3-yl)carbonyl)glycine] | < 50 nM
21 | COc1ncc(-c2cnc3c(c2)c(O)c(C(=O)NCC(=O)O)c(=O)n3C)cn1 [Example 64, 2-(4-Hydroxy-6-(2-methoxypyrimidin-5-yl)-1-methyl-2-oxo-1,2-dihydro-1,8-naphthyridine-3-carboxamido)acetic acid] | 50 to 100 nM
22 | Cn1c(=O)c(C(=O)NCC(=O)O)c(O)c2cc(-c3ccnc(F)c3)cnc21 [Example 65, 2-(6-(2-Fluoropyridin-4-yl)-4-hydroxy-1-methyl-2-oxo-1,2-dihydro-1,8-naphthyridine-3-carboxamido)acetic acid] | < 50 nM
23 | Cn1c(=O)c(C(=O)NCC(=O)O)c(O)c2cc(C3CCCCC3)cnc21 [Example 66, 2-(6-Cyclohexyl-4-hydroxy-1-methyl-2-oxo-1,2-dihydro-1,8-naphthyridine-3-carboxamido)acetic acid] | < 50 nM
24 | Cn1c(=O)c(C(=O)NCC(=O)O)c(O)c2cc(C3=CCCCC3)cnc21 [Example 67, 2-(6-Cyclohexenyl-4-hydroxy-1-methyl-2-oxo-1,2-dihydro-1,8-naphthyridine-3-carboxamido)acetic acid] | < 50 nM
25 | Cn1c(=O)c(C(=O)NCC(=O)O)c(O)c2cc(C3CCCO3)cnc21 (centres unmarked) [Example 71, 2-(4-Hydroxy-1-methyl-2-oxo-6-(tetrahydrofuran-2-yl)-1,2-dihydro-1,8-naphthyridine-3-carboxamido)acetic acid] | 50 to 100 nM
26 | CCCCc1cnc2c(c1)c(O)c(C(=O)NCC(=O)O)c(=O)n2C [Example 72, 2-(6-Butyl-4-hydroxy-1-methyl-2-oxo-1,2-dihydro-1,8-naphthyridine-3-carboxamido)acetic acid] | 50 to 100 nM
27 | C[C@H](NC(=O)c1c(O)c2cc(I)cnc2n(C)c1=O)C(=O)O [Example 73, (S)-2-(4-Hydroxy-6-iodo-1-methyl-2-oxo-1,2-dihydro-1,8-naphthyridine-3-carboxamido)propanoic acid] | < 50 nM
28 | C[C@H](NC(=O)c1c(O)c2cc(-c3ccccc3)cnc2n(C)c1=O)C(=O)O [Example 74, (S)-2-(4-Hydroxy-1-methyl-2-oxo-6-phenyl-1,2-dihydro-1,8-naphthyridine-3-carboxamido)propanoic acid] | 100 to 500 nM
29 | Cn1c(=O)c(C(=O)NCC(=O)O)c(O)c2cc(I)cnc21 [Example 75, 2-(4-Hydroxy-6-iodo-1-methyl-2-oxo-1,2-dihydro-1,8-naphthyridine-3-carboxamido)acetic acid] | < 50 nM
